Paper PMC10986609, “Identification of fungal natural products with potent inhibition in Toxoplasma gondii” (Microbiology Spectrum, 2024)

Key:
[1] = system: human foreskin fibroblasts (HFFs); test: HFF cytotoxicity dose response (cell counting kit-8); conditions: for IC50: Homo sapiens, Fibroblast, 48 h, read-out: HFF IC50 (mean ± SEM)
Procedure: (§1) Samples were further diluted by adding an equal volume of media containing 700 parasites. DMSO and […] of KAE609 were used as negative and positive controls, respectively. Assays were performed with a total of three technical replicates and two biological replicates. After incubation for 48 hours, 50 µL of media was removed, and plates were subjected to freezing and thawing. Following this, 10 µL of passive lysis buffer was added and plates were incubated for 15 min at room temperature. Finally, 30 µL of luciferase reagent was added, and the luminescence was measured immediately using a PHERAstar FSX. In parallel, cytotoxicity dose response was performed in the same fashion without the addition of parasites. Cell counting kit-8 reagent (GlpBio; Cat # GK10001) was added at a 1:10 dilution and incubated at 37°C, 5% CO2 for 1 hour. The absorbance was then measured at 450 nm using a PHERAstar FSX. The data management system CDD vault was used for curve fitting and IC50 determination.

[2] = system: Toxoplasma gondii tachyzoites (RH88); test: microbe, parasite or virus in culture; conditions: Toxoplasma gondii, 48 h, read-out: TgRH88 IC50 (mean ± SEM)
Procedure: (§2) For the initial fixed concentration screening and IC50 determination in T. gondii, we utilized a luciferase expressing RH88 strain to quantify the number of live, actively replicating parasites. To construct this strain, the Fluc and DHFR selection markers had been integrated into the UPRT locus through CRISPR/Cas9, rendering the strain pyrimethamine-resistant ([6]). Screening was performed using a pure compound library provided by the University of Oklahoma Natural Products Discovery Group, containing 683 compounds derived primarily from fungal secondary metabolites. For purposes of testing, HFFs were grown in 96-well microtiter plates in preparation. The media we used to grow cells was referred to a D10 media that was composed of Dulbecco's Modified Eagle Medium (Thermo Fisher; Cat # 11995073), 10% Fetal Bovine Serum (Sigma-Aldrich; Cat # 12306C), 1 × non-essential amino acids (100 ×; Thermo Fisher; Cat # 11140050), HEPES buffer (1M; Fisher Scientific; Cat # SH3023701) at 0.4M, and 10 mg/mL of gentamicin (Fisher Scientific; Cat # 15710072). Compounds were then diluted to 10 µM in 100 µL of fresh D10 media. Each plate utilized artemisinin and DMSO vehicle controls. To each well, 2,500 parasites per 100 µL of D10 media were added. Three technical replicates were then performed. After 48 hours, 160 µL of the D10 media was removed, and plates were subjected to freezing then thawing. Following this, 10 µL of the passive lysis buffer (Promega; Cat# E1910) was added and incubated at room temperature for 15 min. Finally, 100 µL of luciferase assay reagent (Promega; Cat# E1501) was added to each well, and luminescence was measured using a PHERAstar FSX plate reader (BMG Labtech, Germany).
as §1, with “For IC50 and cytotoxicity determination, we used 384 plates with confluent HFF cells. Compounds were serially diluted 3-fold with a starting concentration of 20 µM. Samples” for “Samples”

[3] = system: Toxoplasma gondii tachyzoites (RH88); test: T. gondii fixed concentration screen at 5 µM (luciferase); type: cell-based; conditions: 48 hours
Procedure: as §2, with “To each well, 2,500 parasites per 100 µL of D10 media were added. Three technical replicates were then performed. After 48 hours, 160 µL of the D10 media was removed, and plates were subjected to freezing then thawing. Following this, 10 µL of the passive lysis buffer (Promega; Cat# E1910) was added and incubated at room temperature for 15 min.” left out

[4] = in vitro; conditions: human
Procedure: as §1

[5] = system: Plasmodium falciparum (Dd2); conditions: mean of duplicate or triplicate experiments; read-out: PfDd2 IC50; cited from earlier work
[6] = system: T. gondii; set-up: method as in earlier work; conditions: 100 µM; cited from earlier work

C[C@@H]1CC[C@H]2[C@@H](C)C(=O)O[C@@H]3O[C@@]4(C)CC[C@@H]1[C@]32OO4 [Artemisinin, reference compound]
IC50 [1]: 10.5 µM | IC50 [2]: 0.702 ± 0.0247 µM | inhibition at 5 µM [3]: 94%

CO[C@@H]1[C@H](OC(=O)/C=C/C=C/C=C/C=C/C(=O)O)CC[C@]2(CO2)[C@H]1[C@@]1(C)O[C@@H]1CC=C(C)C [compound 150046, Fumagillin]
IC50 [1]: > 20 µM | toxicity to HFFs ([1]; highest concentration tested (60 µM)): lack of toxicity | IC50 [4]: > 60 µM | IC50 [2]: 0.0588 ± 0.0073 µM | IC50 [5]: 1.31 µM

CC(C)[C@H]1CC[C@@]2(O)COC(=O)[C@H]2[C@@H]1/C=C(\CO)C(=O)O [hydroheptelidic acid, reference compound]
inhibition of T. gondii [6]: no activity
